Test results as given in patent US5190934A, “P-subsituted propane-phosphinic acid compounds” (Ciba-Geigy Corporation, priority 1989, dated 1993).

Tested on: "epileptic"-like discharges of pyramidal cells
Assay: Penicilline-induced "epileptic" hippocampal slice preparation
Assay type: cell-based
Conditions: baclofen at 6 μM
Description: The GABAB antagonists of the present invention interact at the GABAB receptor with IC50 values starting from about 10^-7 M (moles/liter) in rat brain cortex membranes. […] The antagonism against baclofen has also been shown in in vitro electrophysiological models, such as the penicilline-induced "epileptic" hippocampal slice preparation, where baclofen, at a concentration of 6 μM inhibits "epileptic"-like discharges of pyramidal cells. The compounds of the invention antagonise the effects of baclofen at concentrations from approximately 10 to approximately 100 μM. In vivo, antagonism has been shown by ionophoresis of baclofen on rat cerebral cortex, and systemic application of antagonists in doses of 10-100 mg/kg. The muscle relaxant effects of baclofen measured in the rotarod model are also antagonized at doses of about 30 mg/kg i.p.

SMILES: NCC(CC(=O)O)c1ccc(Cl)cc1 (stereo not shown) [baclofen]
- effect on "epileptic"-like discharges of pyramidal cells: inhibits
